The text below walks through data of ChEMBL document CHEMBL1201862, “PubChem BioAssay data set” (2004).

Among the test systems are A498; A549; ACHN; EKVX; HOP-62; Hs-578T; KM12; M14; MCF7; MDA-N; NCI-H460; NCI-H522; NCI/ADR-RES; SF-268; SK-MEL-28; SK-MEL-2; SK-OV-3; SW-620; UACC-257; UO-31.
Common to all, as to test: NCI anticancer screen, dose series, 48 h

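A five-concentration, 48-hour dose response in 96-well plates underlies each endpoint, interpolated linearly between surrounding concentrations. At the GI50, growth is halved.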 Calls of active or inactive are those of the source. Rule as the data show it: active = GI50 up to about 1.1 µM and inactive = higher.

Regarding `NCCN1C(=O)c2ccccc2C1(O)c1ccc(Cl)cc1` (stereo not given), the GI50 in the experiment on A498 was 14.2 µM (inactive); with A549, 23.9 µM (inactive); in the experiment on ACHN, 23 µM (inactive); with EKVX, 21.3 µM (inactive); in the experiment with HOP-62, 24.2 µM (inactive); with Hs-578T it was 16.2 µM (inactive). The GI50 with KM12 is 16.9 µM (inactive); in the experiment with M14, 19 µM (inactive); with MCF7, 16.7 µM (inactive); in the experiment with MDA-N, 18.2 µM (inactive); in the experiment on NCI-H460, 16.4 µM (inactive); in the experiment with NCI-H522 it was 14.2 µM (inactive). The GI50 in the experiment with NCI/ADR-RES is 37.4 µM (inactive); in the experiment with SF-268 it was 27.1 µM (inactive); in the experiment on SK-MEL-28, 17.6 µM (inactive); in the experiment on SK-MEL-2, 16.5 µM (inactive); in the experiment on SK-OV-3, 24.4 µM (inactive); in the experiment with SW-620 it was 18.5 µM (inactive). For the same molecule, the GI50 in the experiment with UACC-257 is 17.1 µM (inactive).
With `c1cc2nsnc2c2c[nH]cc12`, the GI50 in the experiment with A498 is 24.7 µM (inactive); in the experiment with A549 it was 64.9 µM (inactive); in the experiment on ACHN it was 81.5 µM (inactive); in the experiment with EKVX, 26.9 µM (inactive); in the experiment on HOP-62 it was > 100 µM (inactive); in the experiment with Hs-578T it was 48.1 µM (inactive). Moreover, the GI50 was > 100 µM (inactive) with KM12; 34.7 µM (inactive) with MCF7; 71.4 µM (inactive) in the experiment with MDA-N; 86.3 µM (inactive) with NCI-H460; 56.5 µM (inactive) in the experiment on NCI-H522; 61.5 µM (inactive) with NCI/ADR-RES. The GI50 with SF-268, in the experiment with SK-MEL-28, in the experiment with SK-MEL-2, with SK-OV-3, with SW-620 and with UACC-257 was > 100 µM (inactive) throughout. Moreover, the GI50 with UO-31 is 25.5 µM (inactive).
Turning to `O=C(OCc1ccccc1[N+](=O)[O-])N1c2ccccc2[C@@]23O[C@]24CCC[C@H]3C#C/C=C\C#C[C@H]14`, the GI50 was > 100 µM (inactive) in the experiment on A498; 4.02 µM (inactive) in the experiment with A549; 12.8 µM (inactive) in the experiment with ACHN; > 100 µM (inactive) in the experiment on EKVX; 66.5 µM (inactive) in the experiment with Hs-578T; > 100 µM (inactive) with KM12. Also, the GI50 in the experiment on M14 was > 100 µM (inactive); in the experiment on MCF7, 0.875 µM (active); with MDA-N, > 100 µM (inactive); in the experiment with NCI-H460, 0.362 µM (active); with NCI-H522, 78 µM (inactive); with NCI/ADR-RES, 31.3 µM (inactive). Further, the GI50 is 75 µM (inactive) in the experiment with SF-268; 44.1 µM (inactive) in the experiment on SK-MEL-28; > 100 µM (inactive) with SK-MEL-2; > 100 µM (inactive) with SK-OV-3; 9.16 µM (inactive) with SW-620; > 100 µM (inactive) with UACC-257. The GI50 in the experiment on UO-31 was 21 µM (inactive).
Regarding `CC(=O)OCC1OC(n2cnc3nc(Br)[nH]c(=O)c32)C(OC(C)=O)C1OC(C)=O` (stereo not given), the GI50 in the experiment on A498, in the experiment with A549, in the experiment with ACHN, with EKVX, with HOP-62 and in the experiment with Hs-578T was > 100 µM (inactive) in each case. The GI50 was > 100 µM (inactive) in the experiment on KM12; > 100 µM (inactive) with M14; 62.4 µM (inactive) in the experiment on MCF7; > 100 µM (inactive) in the experiment with MDA-N; > 100 µM (inactive) with NCI-H460; > 100 µM (inactive) with NCI-H522. Moreover, the GI50 with NCI/ADR-RES, in the experiment with SF-268, in the experiment with SK-MEL-2, in the experiment on SK-OV-3, with SW-620 and in the experiment on UACC-257 was > 100 µM (inactive) in each case. Moreover, in the experiment with UO-31, the GI50 is > 100 µM (inactive).
As for `COc1cc(/C=C2\N=C(c3ccccc3)N(/N=C/c3cc4cc(C)ccc4nc3Cl)C2=O)ccc1O`, the GI50 with A498 was 16.6 µM (inactive); in the experiment with A549 it was 37.5 µM (inactive); in the experiment on ACHN it was 36.6 µM (inactive); in the experiment with EKVX it was 37.2 µM (inactive); in the experiment with HOP-62 it was 49.3 µM (inactive); with Hs-578T, 40.6 µM (inactive). Besides, the GI50 was 37.2 µM (inactive) with KM12; 42.1 µM (inactive) in the experiment with M14; 25.1 µM (inactive) in the experiment with MCF7; 15.9 µM (inactive) with MDA-N; 30.5 µM (inactive) in the experiment on NCI-H460; 31.6 µM (inactive) in the experiment with NCI/ADR-RES. Besides, the GI50 with SF-268 was 39.2 µM (inactive); with SK-MEL-28 it was > 100 µM (inactive); in the experiment with SK-MEL-2 it was 12.9 µM (inactive); in the experiment on SK-OV-3, 88.1 µM (inactive); in the experiment on SW-620, 39.2 µM (inactive); in the experiment with UACC-257, 49.8 µM (inactive). Moreover, in the experiment on UO-31, the GI50 was 32.5 µM (inactive).
As to `O=C(O)CCCc1nc2c(n1Cc1ccccc1)C(=O)c1ccccc1C2=O`, the GI50 in the experiment with A498 is 34.4 µM (inactive); with A549, 30.8 µM (inactive); with ACHN, 45.2 µM (inactive); with EKVX, 31.6 µM (inactive); with Hs-578T, 75.7 µM (inactive); in the experiment with KM12, 43.7 µM (inactive). The GI50 in the experiment on M14 is 3.72 µM (inactive); in the experiment on MCF7, 29.6 µM (inactive); in the experiment on MDA-N, 22.5 µM (inactive); with NCI-H460 it was 34.8 µM (inactive); in the experiment on NCI-H522, 29.4 µM (inactive); with NCI/ADR-RES, 36.6 µM (inactive). Moreover, the GI50 in the experiment with SF-268 was 26.1 µM (inactive); with SK-MEL-28 it was > 100 µM (inactive); in the experiment on SK-MEL-2, 14.9 µM (inactive); in the experiment with SK-OV-3 it was > 100 µM (inactive); with SW-620, 40.6 µM (inactive); in the experiment with UACC-257 it was 25 µM (inactive). The GI50 in the experiment on UO-31 was > 100 µM (inactive).
In the case of `CC(=O)Nc1cc2ccc(=O)oc2cc1Cl`, the GI50 in the experiment on A498, in the experiment with A549, in the experiment on ACHN, with EKVX, with HOP-62 and with Hs-578T was > 100 µM (inactive) each time. In addition, the GI50 in the experiment on KM12, in the experiment with M14, with MCF7, with MDA-N, with NCI-H460 and with NCI-H522 was > 100 µM (inactive) in each case. In addition, the GI50 in the experiment on NCI/ADR-RES, in the experiment with SF-268, in the experiment on SK-MEL-28, with SK-MEL-2, with SW-620 and in the experiment on UACC-257 was > 100 µM (inactive) throughout. Also, the GI50 in the experiment on UO-31 is > 100 µM (inactive).
Regarding `COc1ccccc1/C=C\c1cnnc2ccccc12`, the GI50 in the experiment with A498 was > 10 µM (inactive); with A549, > 10 µM (inactive); with ACHN, > 10 µM (inactive); in the experiment on EKVX, 8.79 µM (inactive); with HOP-62 it was > 10 µM (inactive); with Hs-578T, > 10 µM (inactive). Also, the GI50 in the experiment with KM12 is > 10 µM (inactive); with M14 it was > 10 µM (inactive); with MCF7 it was 3.56 µM (inactive); in the experiment with MDA-N, 3.33 µM (inactive); with NCI-H460, > 10 µM (inactive); in the experiment on NCI-H522 it was > 10 µM (inactive). The GI50 with NCI/ADR-RES, with SF-268, in the experiment on SK-MEL-28, with SK-MEL-2, with SK-OV-3 and in the experiment with SW-620 was > 10 µM (inactive) in each case. In addition, the GI50 in the experiment with UACC-257 was > 10 µM (inactive).
With `COc1cc(S(=O)(=O)Nc2nc(-c3ccc(N4C(=O)C(CC(=O)O)SC4c4cccs4)cc3)cs2)ccc1Cl` (stereo not given), the GI50 with A498 is > 100 µM (inactive); in the experiment with A549, > 100 µM (inactive); in the experiment on ACHN it was > 100 µM (inactive); with HOP-62, 54 µM (inactive); in the experiment on Hs-578T, 46 µM (inactive); in the experiment on KM12, 36.9 µM (inactive). The GI50 is > 100 µM (inactive) with M14; 25 µM (inactive) in the experiment with MCF7; 43.3 µM (inactive) in the experiment with MDA-N; > 100 µM (inactive) with NCI-H460; 17.8 µM (inactive) in the experiment on NCI-H522; 29.3 µM (inactive) in the experiment with NCI/ADR-RES. Further, the GI50 with SF-268 was 21.9 µM (inactive); in the experiment on SK-MEL-28, 70.1 µM (inactive); in the experiment on SK-MEL-2, 27.8 µM (inactive); with SK-OV-3, > 100 µM (inactive); in the experiment on SW-620, 28.9 µM (inactive); with UACC-257 it was 41.9 µM (inactive). Also, the GI50 in the experiment with UO-31 is 19.9 µM (inactive).
Regarding `OCCN(CCO)c1ccc2c(c1)Cc1ccccc1-2`, the GI50 in the experiment with A498 was 35.1 µM (inactive); in the experiment with A549, 37.8 µM (inactive); in the experiment on ACHN, 32.1 µM (inactive); in the experiment on EKVX, 43.1 µM (inactive); with HOP-62, 73.5 µM (inactive); in the experiment with Hs-578T, 37.1 µM (inactive). Moreover, the GI50 is 38.3 µM (inactive) with KM12; 32.2 µM (inactive) with M14; 24.5 µM (inactive) in the experiment with MCF7; 50.6 µM (inactive) with MDA-N; 19.7 µM (inactive) in the experiment on NCI-H460; 46.8 µM (inactive) in the experiment on NCI/ADR-RES. For the same molecule, the GI50 with SF-268 is 26.2 µM (inactive); in the experiment on SK-MEL-28 it was 64.3 µM (inactive); in the experiment on SK-MEL-2, 26.7 µM (inactive); in the experiment on SK-OV-3 it was 50.6 µM (inactive); in the experiment on SW-620, 64.4 µM (inactive); in the experiment with UACC-257, 31 µM (inactive). In addition, in the experiment on UO-31, the GI50 was 31.9 µM (inactive).
